# How the values were obtained:
# BCLXL expression = details: rat depression model, chronic administration; cited from earlier work
# CYP2C9 = CYP2C9 (Homo sapiens, UniProt P11712); details: cited from earlier work
# c-fos [1] = details: rat; cited from earlier work
# laminin, CAM-L1, pCREB = details: chronic administration, unstressed rats; cited from earlier work
# GluR1 = details: cited from earlier work
# CYP3A4 = CYP3A4 (Homo sapiens, UniProt P08684); details: cited from earlier work
# CYP2C19 = CYP2C19 (Homo sapiens, UniProt P33261); details: cited from earlier work
# CYP2C19, sequence (P33261 whole entry): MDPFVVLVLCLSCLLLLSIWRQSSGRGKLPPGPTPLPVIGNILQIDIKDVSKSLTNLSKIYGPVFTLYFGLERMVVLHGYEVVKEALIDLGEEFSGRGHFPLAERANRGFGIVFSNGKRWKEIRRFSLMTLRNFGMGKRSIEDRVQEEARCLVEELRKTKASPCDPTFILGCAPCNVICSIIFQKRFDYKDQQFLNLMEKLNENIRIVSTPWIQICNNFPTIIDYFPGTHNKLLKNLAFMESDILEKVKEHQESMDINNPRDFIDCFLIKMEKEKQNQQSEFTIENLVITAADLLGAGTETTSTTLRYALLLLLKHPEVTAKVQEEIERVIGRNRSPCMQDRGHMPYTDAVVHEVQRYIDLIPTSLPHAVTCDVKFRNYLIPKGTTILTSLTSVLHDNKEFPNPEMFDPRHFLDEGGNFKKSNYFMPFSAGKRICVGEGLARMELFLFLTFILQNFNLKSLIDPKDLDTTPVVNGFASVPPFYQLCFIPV
# MAPK1 = details: cultured rat astrocytes; cited from earlier work
# patients with MDD = experiment: Five Phase II studies of vilazodone, eight weeks of treatment; type: in vivo, human; details: active comparator in three Phase II studies
# Excerpt: As part of the vilazodone development program, five Phase II studies have been conducted, all in patients with MDD. These studies randomized 2,098 patients for eight weeks of treatment, 1196 of whom received vilazodone.
# CYP1A2 = target: T1, CYP1A2 (Homo sapiens, UniProt P05177); details: cited from earlier work
# T1 sequence (P05177 1-516): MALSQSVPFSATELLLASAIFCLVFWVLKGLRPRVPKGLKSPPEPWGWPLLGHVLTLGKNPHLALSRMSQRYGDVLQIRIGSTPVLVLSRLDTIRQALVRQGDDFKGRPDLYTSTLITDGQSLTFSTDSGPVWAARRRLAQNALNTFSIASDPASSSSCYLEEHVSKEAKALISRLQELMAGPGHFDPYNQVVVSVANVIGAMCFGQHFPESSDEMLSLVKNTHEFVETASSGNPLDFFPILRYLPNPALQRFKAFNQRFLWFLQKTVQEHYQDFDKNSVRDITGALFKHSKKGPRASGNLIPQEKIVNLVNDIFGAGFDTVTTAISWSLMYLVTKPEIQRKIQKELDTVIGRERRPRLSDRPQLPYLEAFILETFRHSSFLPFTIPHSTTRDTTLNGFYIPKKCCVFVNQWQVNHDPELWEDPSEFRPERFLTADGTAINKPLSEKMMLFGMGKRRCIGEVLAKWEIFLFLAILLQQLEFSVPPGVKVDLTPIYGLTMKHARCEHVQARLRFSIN
# c-fos [2] = details: unstressed rats; cited from earlier work
# PLC-β1 knockout mice = details: cited from earlier work
# GluR1, GluR2, and GluR3 = details: chronic (30 days) administration; mouse nucleus accumbens and dorsal striatum; cited from earlier work
# 26S proteasome = details: cited from earlier work
# mice = details: intracerebroventricular injection; cited from earlier work
# CYP3A4, sequence (P08684 whole entry): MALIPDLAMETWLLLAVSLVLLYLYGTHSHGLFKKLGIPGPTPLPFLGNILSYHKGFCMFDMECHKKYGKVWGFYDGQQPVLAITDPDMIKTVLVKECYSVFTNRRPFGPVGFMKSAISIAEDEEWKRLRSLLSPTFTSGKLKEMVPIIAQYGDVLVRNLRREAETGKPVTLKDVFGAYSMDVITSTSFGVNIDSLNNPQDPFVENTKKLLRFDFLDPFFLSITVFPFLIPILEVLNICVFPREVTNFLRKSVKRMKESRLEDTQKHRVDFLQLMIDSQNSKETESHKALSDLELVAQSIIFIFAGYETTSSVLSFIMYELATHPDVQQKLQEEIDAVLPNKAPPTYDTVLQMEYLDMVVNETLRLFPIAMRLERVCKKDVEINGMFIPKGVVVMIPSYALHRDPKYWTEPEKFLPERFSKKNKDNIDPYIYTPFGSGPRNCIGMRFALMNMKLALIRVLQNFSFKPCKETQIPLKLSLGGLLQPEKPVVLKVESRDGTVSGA
# CYP2C9, sequence (P11712 whole entry): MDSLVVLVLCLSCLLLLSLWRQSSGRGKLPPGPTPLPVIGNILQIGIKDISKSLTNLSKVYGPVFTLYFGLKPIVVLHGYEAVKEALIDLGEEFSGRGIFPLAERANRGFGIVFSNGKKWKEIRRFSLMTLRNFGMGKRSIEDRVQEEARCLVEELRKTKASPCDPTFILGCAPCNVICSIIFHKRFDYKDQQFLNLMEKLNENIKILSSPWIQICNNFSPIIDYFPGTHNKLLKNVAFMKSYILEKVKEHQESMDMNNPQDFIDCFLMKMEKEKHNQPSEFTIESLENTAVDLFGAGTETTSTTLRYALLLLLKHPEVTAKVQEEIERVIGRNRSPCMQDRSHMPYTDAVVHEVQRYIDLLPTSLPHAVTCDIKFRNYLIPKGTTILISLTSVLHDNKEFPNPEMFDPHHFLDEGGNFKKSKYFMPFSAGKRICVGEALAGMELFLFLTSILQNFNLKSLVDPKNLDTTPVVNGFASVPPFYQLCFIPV
molecule,measurement,setting,value
N[C@@H]1C[C@H]1c1ccccc1 (racemic) [tranylcypromine],BCLXL expression in the CA1 and DG subfields,BCLXL expression,increased
CN[C@H]1CC[C@@H](c2ccc(Cl)c(Cl)c2)c2ccccc21 [Sertraline],inhibition of CYP2C9,CYP2C9,partially inhibit
CN(C)CCCN1c2ccccc2CCc2ccc(Cl)cc21 [clomipramine],level of c-fos in the PAG brain region,c-fos [1],decreased
CNCCCN1c2ccccc2CCc2ccccc21 [desipramine],laminin and CAM-L1 in hippocampus and frontal cortex,"laminin, CAM-L1, pCREB",increased
same,pCREB,"laminin, CAM-L1, pCREB",increased pCREB in the frontal cortex only
same,level of c-fos in the PAG brain region,c-fos [1],decreased
CNCCC(Oc1ccc(C(F)(F)F)cc1)c1ccccc1 (stereo not shown) [fluoxetine],phosphorylation of GluR1,GluR1,increase
same,inhibition of CYP3A4,CYP3A4,inhibit
same,inhibition of CYP2C19,CYP2C19,inhibit
same,MAPK1 activation,MAPK1,increased
same,Hamilton Depression Scale (HAM-D) total score versus placebo,patients with MDD,did not show a statistically significant improvement
same,inhibition of CYP1A2,CYP1A2,inhibit
same,c-fos staining in the brain,c-fos [2],decrease
O=C(CCCN1CCC(O)(c2ccc(Cl)cc2)CC1)c1ccc(F)cc1 [haloperidol],schizophrenic-like behaviors,PLC-β1 knockout mice,rescued
CNCCCC12CCC(c3ccccc31)c1ccccc12 [maprotiline],"GluR1, GluR2, and GluR3","GluR1, GluR2, and GluR3",increased
CCCCC[C@H](O)/C=C/[C@H]1C(=O)C=C[C@@H]1C/C=C\CCCC(=O)O [prostaglandin J2],function of the 26S proteasome,26S proteasome,inhibited
CCOc1ccccc1OC(c1ccccc1)C1CNCCO1 (stereo not shown) [reboxetine],BCLXL expression in the CA1 and DG subfields,BCLXL expression,increased
same,c-fos staining in the brain,c-fos [2],decrease
neuropeptide Y [NPY],antidepressant-like effect,mice,dose dependent antidepressant-like effect
